The target in test [1] is T1, telomerase (Homo sapiens (Human), UniProt O14746). Description: Flash plate (Flashplate) telomerase assay. The test is classed as biochemical. The conditions noted are these: affinity purified telomerase extract, 20 μM dGTP; read-out: Flashplate IC 50. The protocol:
Determining IC50 for PMPGpp, (R)-PMPGpp and (S)-PMPGpp. Telomerase activity was determined using the “flash-plate” assay with concentrations of PMPGpp ranging from 0.05 μM to 50 μM.
Compound was pre-incubated with affinity purified telomerase extract, 100 nM primer [5′ biotin-d(AATCCGTCGAGCAGAGTT)] (SEQ ID NO: 4), 120 μM dTTP, 20 μM dGTP, […], in a buffer containing 50 mM Tris-Acetate (pH 8.2), 1 mM MgCl2, 1 mM DTT, 0.5 mM EGTA and 150 mM KOAc, 5.4 nM ^33P-labeled [d([…])] (SEQ ID NO: 5 (6×10^9 cpm/nmol) in a final reaction volume of 30 μl. Incubations were done for 90 min at 37° C. Following stoppage of the reaction with EDTA (10 mM), the reaction products were captured in a streptavidin coated 96 well FlashPlate. After a 2 hr capture period for the primer, the plates were washed five times (2×SSC, 0.1% SDS, 10 mM EDTA) and counted.
Compound was pre-incubated with affinity purified telomerase extract, 100 nM primer [5′ biotin-d(AATCCGTCGAGCAGAGTT)] (SEQ ID NO: 4), 120 μM dTTP, 20 μM dGTP, 10 μM dATP, in a buffer containing 50 mM Tris-Acetate (pH 8.2), 1 mM MgCl2, 1 mM DTT, 0.5 mM EGTA and 150 mM KOAc, 5.4 nM ^33P-labeled [d([…])] […]

For test [2], the target named is T1, telomerase. Description: Primer extension assay for telomerase activity. It is filed as biochemical. The conditions noted are these: for IC50: purified telomerase, dGTP 50 μM. As to the method:
Purified human telomerase was incubated with d(TTAGGG)3 (SEQ ID NO: 1) and deoxy-nucleoside triphosphates for 90 minutes at 37° C. All reactions were done in the presence of 200 dTTP and 10 μM dATP (50,000 cpm/pmol a-^33P-dATP). Activity was determined by incubating affinity purified telomerase extract with 1 μM primer [d(TTAGGG)3] (SEQ ID NO: 1), 200 μM dTTP, 50 μM dGTP, 10 μM dATP, 10 μCi [α-^33P]dATP (2000-4000 Ci/mmol) in a buffer containing 50 mM (N-2-hydroxyethyl piperazine-N′-3 propanesulfonic acid)-NaOH pH 8.5, 1 mM MgCl2, 1 mM DTT, 5% glycerol, 0.5 mM EGTA and 100 mM KOAc in a final reaction volume of 40 μl. Primer extension products were analyzed on a 15% polyacrylamide gel containing 7 M urea. A characteristic telomerase ladder has multiple bands. If a compound is not a substrate then (TTAGGG)3TTA (21 nt) (SEQ ID NO: 2). If a compound is a chain terminator then (TTAGGG)3TTAG* (22 nt) (SEQ ID NO: 3).
Purified human telomerase was incubated with d(TTAGGG)3 (SEQ ID NO: 1) and deoxy-nucleoside triphosphates for 90 minutes at 37° C. All reactions were done in the presence of 200 dTTP and 10 μM dATP (50,000 cpm/pmol a-^33P-dATP). Activity was determined by incubating affinity purified telomerase extract with […] primer [d(TTAGGG)3] (SEQ ID NO: 1), […] [α-^33P]dATP (2000-4000 Ci/mmol) in a buffer containing 50 mM (N-2-hydroxyethyl piperazine-N′-3 propanesulfonic acid)-NaOH pH 8.5, 1 mM MgCl2, 1 mM DTT, 5% glycerol, 0.5 mM EGTA and 100 mM KOAc in a final reaction volume of 40 μl. Primer extension products were analyzed on a 15% polyacrylamide gel containing 7 M urea. A characteristic telomerase ladder has multiple bands. If a compound is not a substrate then (TTAGGG)3TTA (21 nt) (SEQ ID NO: 2). If a compound is a chain terminator then (TTAGGG)3TTAG* (22 nt) (SEQ ID NO: 3).

The target in test [3] is telomerase in HT3 cells (Homo sapiens (Human), UniProt O14746). Description: Ex vivo TRAP assay in HT3 cells. The test is classed as cell-based. The protocol:
HT3 cells were treated for three days with increasing concentrations of PMPG-diisopropyloxy ester ranging from 0.2 μM to 20 μM. Cells (HT3 RPMI+10% PBS) were incubated with compound for 24 hr after which PSTS primer (phosphorothioate-d(AATCCGTCGAGCAGAGTT (SEQ ID NO: 6) containing a 5′ Cy-5 label) (7.5 μM) and fresh compound are added for an additional 24 hr. Cells were lysed and endogenous telomerase inactivated by heating (15 min, 75° C.). Products were amplified by 30 cycles of PCR under TRAP conditions set forth above and quantified. The results of two independent experiments are shown in Table 4.
HT3 cells were treated for three days with increasing concentrations of one or more of the indicated compounds ranging from 0.2 μM to 20 μM. Cells (HT3 RPMI+10% FBS) were incubated with compound for 24 hours, after which PSTS primer (phosphorothioate-d AATCCGTCGAGCAGAGTT (SEQ ID NO: 6) containing a 5′ Cy-5 label) (7.5 μM) and fresh compound were added for an additional 24 hours. Cells were lysed and endogenous telomerase inactivated by heating (15 minutes, 75° C.). Products were amplified by 30 cycles of PCR under TRAP conditions set forth in Kim et al., Science 266:2011, […] (which reference is incorporated herein in its entirety) and quantified.

Test [4] has as its system A549 cells. Description: Telomere repeat fragment (TRF) assay using A549 cells. Conditions: 10 μM and 5 μM, approximately 70 population doublings. The test is classed as cell-based. The protocol: (§1) Approximately 1-2 μg of genomic DNA from each cell line or tissue was digested by Hinf/RsaI for 2 hours at 37° C. Following DNA digestion, the genomic DNA fragments were separated on a 0.8% agarose gel and transferred to a nylon membrane by blotting. All membrane hybridization and detection reagents were provided in the TeloTAGGG Telomere Length Assay kit (Roche Diagnostics, Mannheim Germany). The blotted membranes were hybridized with digoxigenin (DIG)-labeled PNA probe specific for telomeric repeats, followed by incubation with anti-DIG-antibody-alkaline phosphatase according to the manufacturer's instructions. Alkaline phosphatase was quantified using the chemiluminescent substrate. Telomere lengths were calculated according to the manufacturer's instruction.
Lane 1 is a ladder from 21.2 kb to 1.9 kb. Lanes 2 and 3 have 10 μM and 5 μM, respectively, of PMPG free acid (ID#142693). Lanes 4 to 6 have 10 μM, 5 μM, and 2.5 μM, respectively, of PMPG prodrug (ID#142715). Lane 7 has 2 μM of Imetelstat (163 L). Lane 8 has 2 μM of a mismatch. Lanes 9 and 10 have 20 μM and 10 μM, respectively, of PMIBeG free acid [(((2-((2-amino-6-oxo-1H-purin-9(6H)-yl)methyl)allyl)oxy)methyl)phosphonic acid] (ID#142811). Indicated amounts each compound were added to A549 cells. After approximately 70 population doublings, the cells were harvested and telomere lengths determined using TRF. The estimated average telomere lengths were: (1) MM/mismatch control: 7 kb; (2) Imetelstat/163 L: 4.3 kb; (3) PMPG prodrug (10 μM and 5 μM): 4 kb; (4) PMPG free acid (5 μM and 10 μM): 4 kb; (5) PMIBeG prodrug (50 μM): 4.3 kb; (6) PMIBeG free acid (20 μM): 5 kb.

Test [5] deals with Caki-1 cells. The test can be described thus: Caki-1 tumor growth in SCID hairless outbred (SHO) mice. The test is classed as in vivo. The protocol: Low-passage Caki-1 cells were injected subcutaneously into the flank of SCID hairless outbred (SHO) mice receiving 30 mg/kg of one of the following via intraperitoneal injection: vehicle (PBS with 0.4% Tween 20), Imetelstat (163 L), PMPG free acid (ID#142693), or PMPG prodrug (ID#142715). Calipers were used to measure tumor length and width bi-weekly, and tumor volume was calculated. Once a tumor had grown >50 mm^3, the animal was randomly entered into a study group, either control or treatment. Animals received 30 mg/kg compound via intraperitoneal injection for the duration of the study. The control vehicle was PBS with 0.4% Tween 20. Tumor volume was measured bi-weekly, and animals were sacrificed either when tumor size was >2000 mm^3 or at defined study completion date.
At the conclusion of the study, a linear transformation of the tumor growth curves was performed. The slope of the growth curves for each treatment group was derived by using a linear mixed effects model. The Y-intercept was used to confirm random tumor starting size at the time of animals entering into the study.

The subject of test [6] is immortal U87 cells. Description: Telomere repeat fragment (TRF) assay using immortal U87 cells. The conditions noted are these: concentration not given at the value, approximately 20 population doublings. It is filed as cell-based. The protocol: as §1
Telomere repeat fragment assays using immortal U87 cells were performed. 10 μM or 20 μM PMIBeG prodrug (ID#142820) or PMPG prodrug (ID#142715) were added to the cells. Imetelstat (163 L) was used as a reference and a mismatch was used as a negative control. After approximately 20 population doublings, the cells were harvested and telomere lengths determined using TRF. The estimated average lengths were: (1) mismatch control: 5 kb; (2) Imetelstat (163 L): 3.5 kb; (3) PMIBeG prodrug (ID#142820) at 20 μM: 4 kb; (4) PMIBeG prodrug (ID#142820) at 10 μM: 4.1 kb; (5) PMPG prodrug (ID#142715): 3.5 kb.

The mark [7] stands for this setting: Day 10, 30 mg/kg intraperitoneal.
The mark [8] stands for this setting: Day 20, 30 mg/kg intraperitoneal.
The mark [9] stands for this setting: Day 30, 30 mg/kg intraperitoneal.
Where [10] appears, read: Day 40, 30 mg/kg intraperitoneal.
Where [11] appears, read: Day 50, 30 mg/kg intraperitoneal.
Setting [12] is: Day 60, 30 mg/kg intraperitoneal.
Where [13] appears, read: linear mixed effects model, change versus vehicle.

Where “and” joins values, the source holds several entries; their conditions need not be identical. Identical values can stand only once.

Data on three compounds can be found in patent US10035814B2, “Guanine analogs as telomerase substrates and telomere length affectors” (Geron Corporation, priority 2011, dated 2018).

T1 sequence (O14746 whole entry): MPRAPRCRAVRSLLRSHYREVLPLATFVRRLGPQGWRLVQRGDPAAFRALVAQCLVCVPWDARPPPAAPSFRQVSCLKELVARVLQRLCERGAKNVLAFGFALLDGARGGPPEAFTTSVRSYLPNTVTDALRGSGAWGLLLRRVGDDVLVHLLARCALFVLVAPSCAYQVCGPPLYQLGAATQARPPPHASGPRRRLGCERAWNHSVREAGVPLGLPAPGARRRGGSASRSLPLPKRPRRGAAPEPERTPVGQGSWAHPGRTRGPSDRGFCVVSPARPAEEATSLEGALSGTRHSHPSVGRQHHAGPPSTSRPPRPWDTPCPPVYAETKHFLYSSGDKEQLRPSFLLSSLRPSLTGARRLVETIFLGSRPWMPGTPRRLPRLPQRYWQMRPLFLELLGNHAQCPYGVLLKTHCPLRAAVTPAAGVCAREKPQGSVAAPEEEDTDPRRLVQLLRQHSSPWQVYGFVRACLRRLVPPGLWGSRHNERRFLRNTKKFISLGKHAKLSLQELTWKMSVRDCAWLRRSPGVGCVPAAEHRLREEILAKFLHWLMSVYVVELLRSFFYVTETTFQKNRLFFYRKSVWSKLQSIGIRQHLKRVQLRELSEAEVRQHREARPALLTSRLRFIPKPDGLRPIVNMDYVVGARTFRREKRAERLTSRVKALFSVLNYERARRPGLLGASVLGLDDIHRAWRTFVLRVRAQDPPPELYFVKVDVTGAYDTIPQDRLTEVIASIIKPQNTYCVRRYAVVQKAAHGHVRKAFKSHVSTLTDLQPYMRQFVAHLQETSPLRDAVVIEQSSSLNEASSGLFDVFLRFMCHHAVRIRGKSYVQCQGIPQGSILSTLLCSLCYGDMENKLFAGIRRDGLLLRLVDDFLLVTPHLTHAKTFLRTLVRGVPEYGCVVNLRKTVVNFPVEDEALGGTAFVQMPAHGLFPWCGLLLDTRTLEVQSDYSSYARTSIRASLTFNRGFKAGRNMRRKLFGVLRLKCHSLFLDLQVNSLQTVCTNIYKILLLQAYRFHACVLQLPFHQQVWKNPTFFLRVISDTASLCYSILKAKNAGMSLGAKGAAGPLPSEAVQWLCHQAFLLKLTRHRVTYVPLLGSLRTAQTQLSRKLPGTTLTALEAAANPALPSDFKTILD
Chain of telomerase in HT3 cells (O14746 whole entry): as above
Chain of telomerase in HT3 cells (O60832 whole entry partner): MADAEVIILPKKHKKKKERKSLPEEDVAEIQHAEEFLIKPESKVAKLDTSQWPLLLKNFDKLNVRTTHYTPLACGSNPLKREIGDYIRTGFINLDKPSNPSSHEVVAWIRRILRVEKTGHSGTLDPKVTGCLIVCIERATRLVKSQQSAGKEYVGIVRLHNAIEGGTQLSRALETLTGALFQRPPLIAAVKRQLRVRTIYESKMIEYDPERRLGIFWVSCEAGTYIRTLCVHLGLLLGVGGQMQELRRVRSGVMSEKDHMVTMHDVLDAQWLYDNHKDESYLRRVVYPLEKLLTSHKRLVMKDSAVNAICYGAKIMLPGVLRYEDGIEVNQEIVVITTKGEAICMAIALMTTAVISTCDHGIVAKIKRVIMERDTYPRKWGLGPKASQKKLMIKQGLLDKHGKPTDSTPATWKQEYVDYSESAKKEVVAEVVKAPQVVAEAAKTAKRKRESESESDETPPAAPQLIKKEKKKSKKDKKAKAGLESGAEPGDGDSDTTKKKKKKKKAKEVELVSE
Chain of telomerase in HT3 cells (Q9NX24 whole entry partner): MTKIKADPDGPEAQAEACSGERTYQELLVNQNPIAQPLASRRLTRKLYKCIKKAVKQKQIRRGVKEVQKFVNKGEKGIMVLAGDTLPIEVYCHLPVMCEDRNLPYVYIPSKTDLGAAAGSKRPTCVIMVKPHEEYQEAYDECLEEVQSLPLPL
Chain of telomerase in HT3 cells (Q9NPE3 whole entry partner): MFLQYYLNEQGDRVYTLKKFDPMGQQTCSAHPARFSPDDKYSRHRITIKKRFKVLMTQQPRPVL
Chain of telomerase in HT3 cells (Q9NY12 whole entry partner): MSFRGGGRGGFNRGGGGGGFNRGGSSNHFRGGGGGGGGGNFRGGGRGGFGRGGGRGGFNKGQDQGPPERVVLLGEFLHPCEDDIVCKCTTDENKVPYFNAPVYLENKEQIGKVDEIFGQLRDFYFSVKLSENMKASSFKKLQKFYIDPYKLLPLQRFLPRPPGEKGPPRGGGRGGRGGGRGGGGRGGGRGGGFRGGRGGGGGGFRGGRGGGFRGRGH
Chain of telomerase in HT3 cells (Q9BUR4 whole entry partner): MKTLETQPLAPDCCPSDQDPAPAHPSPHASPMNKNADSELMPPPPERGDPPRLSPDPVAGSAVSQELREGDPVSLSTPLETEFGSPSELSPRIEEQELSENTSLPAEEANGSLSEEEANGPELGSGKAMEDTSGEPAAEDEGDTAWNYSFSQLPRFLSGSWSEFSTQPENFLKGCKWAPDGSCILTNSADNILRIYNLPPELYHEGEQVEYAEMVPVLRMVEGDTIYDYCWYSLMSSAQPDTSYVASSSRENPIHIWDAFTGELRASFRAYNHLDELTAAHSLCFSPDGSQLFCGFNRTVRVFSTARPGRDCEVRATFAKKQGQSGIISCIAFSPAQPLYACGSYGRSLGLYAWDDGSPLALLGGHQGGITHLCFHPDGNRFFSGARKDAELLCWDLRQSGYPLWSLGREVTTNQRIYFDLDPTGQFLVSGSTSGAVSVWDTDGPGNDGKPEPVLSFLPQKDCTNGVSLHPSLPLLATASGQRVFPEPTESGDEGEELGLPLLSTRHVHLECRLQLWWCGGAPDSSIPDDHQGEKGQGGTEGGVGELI

Regarding `CC(Cn1cnc2c(=O)[nH]c(N)nc21)OCP(=O)(O)OP(=O)(O)OP(=O)(O)O` (single isomer, unassigned) [ID#142692], the IC50 in test [1] was 1000 nM; in test [2] it was ~1000 nM and 1000 nM. Moreover, the “Primer Ext. Assay Notes: telomerase substrate / chain terminator” value in test [2] (listed as PMPGpp) is “acts as a chain terminator”; in test [2] (listed as R-PMPGpp) it was “resulting in chain termination”.
In the case of `CC(Cn1cnc2c(=O)[nH]c(N)nc21)OCP(=O)(O)OP(=O)(O)OP(=O)(O)O` (single isomer, unassigned) [ID#142751, PMPG free acid, S form], the IC50 is 14100 nM in test [1] and 13500 nM in test [2].
On to `CC(C)OC(=O)OCOP(=O)(COC(C)Cn1cnc2c(=O)[nH]c(N)nc21)OCOC(=O)OC(C)C` (single isomer, unassigned) [ID#142715], for which the IC50 in test [3] (HT3 cells, 0.2 μM to 20 μM, two independent experiments, read-out: Ex vivo Assay IC 50) was 1000 to 3000 nM and 1200 to 3200 nM. The EC50 in test [3] (Table 8, assay not given, repeat determinations, values coincide with Ex Vivo TRAP, read-out: EC50) is 1100 nM and 1200 nM and 3100 nM and 810 nM. The “estimated average telomere length” value is given as 4 kb in test [4] and 3.5 kb in test [6]. Moreover, the tumor volume worked out at 170.7 mm^3 in test [5] (setting [7]); 377.5 mm^3 in test [5] (setting [8]); 706.6 mm^3 in test [5] (setting [9]); 1186.6 mm^3 in test [5] (setting [10]); 1845.9 mm^3 in test [5] (setting [11]); 2713.0 mm^3 in test [5] (setting [12]). Also, the “tumor volume as a percentage of the tumor volume of control vehicle mice” value is given as 94% in test [5] (setting [7]); 95% in test [5] (setting [8]); 95% in test [5] (setting [9]); 95% in test [5] (setting [10]); 95% in test [5] (setting [11]); 96% in test [5] (setting [12]). Further, the “Intercept coefficient of linear transformed tumor growth curve” value in test [5] (setting [13]) was −0.093. For the same compound, the “Slope coefficient of linear transformed tumor growth curve” value in test [5] (setting [13]) was −0.001. Also, the “activity in the cell free telomerase assay” value in test [2] (prodrug itself, cell free) was “inactive”.

Usually EC50 stands for the concentration giving half of the maximal effect.
